In assay [1] the target is T1, human serotonin transporters (Homo sapiens, UniProt P31645).
T1 construct: expressed in transfected cells
As to the kind of experiment: Serotonin Transporter Binding Assay ([3H]-citalopram displacement, HEK-hSERT cell membranes). How it is done: HEK-293 cells that stably express human serotonin transporters (HEK-hSERT cells) were grown at 37° C. in 5% CO2 as a monolayer in medium consisting of EMEM supplemented with 10% fetal bovine serum and G418 sulfate (500 μg/mL). To prepare membranes for radioligand binding experiments, cells were rinsed twice with phosphate-buffered saline (138 mM NaCl, 4.1 mM KCl, 5.1 mM Na2PO4, 1.5 mM […], 11.1 mM glucose, pH 7.4). Cells were transferred from plates to polypropylene tubes (16×100 mm), centrifuged at 1,200×g for 5 min and were frozen at −80° C. until assay. Following centrifugation, pellets were resuspended by homogenization in buffer consisting of 50 mM Tris (pH 7.7 at 25° C.), 120 mM NaCl and 5 mM KCl and then centrifuged at 32,000×g for 10 min. Following centrifugation, supernatants were discarded and pellets were resuspended in buffer consisting of 50 mM Tris (pH 7.4 at 25° C.), 150 mM NaCl and 5 mM KCl. Membrane homogenates (200 μl/plate) were incubated with 1 nM [^3H]-citalopram (specific activity=85 Ci/mMol) and increasing concentrations of test compounds for 1 hr at 25° C. in a total volume of 250 μl. The assay buffer consisted of 50 mM Tris (pH 7.4 at 25° C.), 120 mM NaCl and 5 mM KCl (pH 7.4 with conc. HCl). Plates were incubated for 1 hr at 25° C., then filtered through 0.5% PEI treated Whatman GF/B filters using a Brandel cell harvester. Filters were washed three times with 3 mL of ice-cold tris wash buffer. Non-specific binding was defined with 10 μM fluoxetine. Amount of radioligand bound in the presence and absence of competitor was analyzed by plotting (−)log drug concentration versus the amount of radioligand specifically bound. The midpoint of the displacement curve (IC50, nM), signifies the potency. Ki values were calculated using the method of Cheng and Prusoff (1973).

Assay [2] concerns the target T2, human norepinephrine transporters (Homo sapiens, UniProt P23975).
T2 construct: host or cells: MDCK cells (also 'HEK-hNET cells'), membrane homogenates
Nature of the assay: Norepinephrine Transporter Binding Assay ([3H]-nisoxetine displacement, hNET cell membranes). The following applies: 2.7 nM [3H]-nisoxetine, 1 hr at 4° C., read-out: NE Reuptake (binding Ki). How it is done:
MDCK cells that stably express human norepinephrine transporters (HEK-hNET cells) were supplied by Receptor Biology, Inc. Pellets were resuspended by homogenization in buffer consisting of 50 mM Tris (pH 7.4 at 25° C.), 120 mM NaCl and 5 mM KCl. Membrane homogenates (200 μl/well, 8 ug protein) were incubated with 2.7 nM [^3H]-nisoxetine (specific activity=80 Ci/mMol) and increasing concentrations of test compounds for 1 hr at 4° C. in a total volume of 250 μl. The assay buffer consisted of 50 mM Tris (pH 7.4 at 25° C.), 120 mM NaCl and 5 mM KCl (pH 7.4 with conc. HCl). Plates were incubated for 1 hr at 4° C., then filtered through 0.5% PEI treated Whatman GF/B filters using a Brandel cell harvester. Filters were washed three times with 3 mL of ice-cold tris wash buffer. Non-specific binding was defined with 10 μM desipramine. Amount of radioligand bound in the presence and absence of competitor was analyzed by plotting (−)log drug concentration versus the amount of radioligand specifically bound. The midpoint of the displacement curve (IC50, nM), signifies the potency. Ki values were calculated using the method of Cheng and Prusoff (1973).

The mark [3] stands for this setting: HEK-hSERT membranes, 1 nM [3H]-citalopram, 1 hr at 25° C., read-out: SERT (binding Ki).

The structures appear in SMILES notation. pKi: −log10 of the molar value. Like-named read-outs stand apart in the source and are kept apart here.

T1 sequence (P31645 whole entry): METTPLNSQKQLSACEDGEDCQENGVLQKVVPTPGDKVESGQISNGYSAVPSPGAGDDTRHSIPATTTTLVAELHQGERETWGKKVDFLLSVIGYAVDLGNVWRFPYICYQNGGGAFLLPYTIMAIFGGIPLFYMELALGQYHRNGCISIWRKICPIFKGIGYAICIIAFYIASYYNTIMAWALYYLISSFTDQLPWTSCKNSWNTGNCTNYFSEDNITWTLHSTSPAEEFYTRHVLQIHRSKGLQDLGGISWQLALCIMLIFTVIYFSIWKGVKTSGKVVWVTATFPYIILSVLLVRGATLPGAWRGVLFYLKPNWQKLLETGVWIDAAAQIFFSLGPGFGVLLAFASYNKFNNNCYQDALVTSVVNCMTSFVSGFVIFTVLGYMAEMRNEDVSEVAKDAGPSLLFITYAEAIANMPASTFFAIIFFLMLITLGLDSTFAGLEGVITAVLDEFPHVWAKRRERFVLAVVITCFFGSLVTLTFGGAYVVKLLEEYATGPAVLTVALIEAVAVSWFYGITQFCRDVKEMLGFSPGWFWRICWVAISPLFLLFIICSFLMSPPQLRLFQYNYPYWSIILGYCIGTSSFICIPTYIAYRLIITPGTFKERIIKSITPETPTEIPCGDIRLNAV
T2 sequence (P23975 whole entry): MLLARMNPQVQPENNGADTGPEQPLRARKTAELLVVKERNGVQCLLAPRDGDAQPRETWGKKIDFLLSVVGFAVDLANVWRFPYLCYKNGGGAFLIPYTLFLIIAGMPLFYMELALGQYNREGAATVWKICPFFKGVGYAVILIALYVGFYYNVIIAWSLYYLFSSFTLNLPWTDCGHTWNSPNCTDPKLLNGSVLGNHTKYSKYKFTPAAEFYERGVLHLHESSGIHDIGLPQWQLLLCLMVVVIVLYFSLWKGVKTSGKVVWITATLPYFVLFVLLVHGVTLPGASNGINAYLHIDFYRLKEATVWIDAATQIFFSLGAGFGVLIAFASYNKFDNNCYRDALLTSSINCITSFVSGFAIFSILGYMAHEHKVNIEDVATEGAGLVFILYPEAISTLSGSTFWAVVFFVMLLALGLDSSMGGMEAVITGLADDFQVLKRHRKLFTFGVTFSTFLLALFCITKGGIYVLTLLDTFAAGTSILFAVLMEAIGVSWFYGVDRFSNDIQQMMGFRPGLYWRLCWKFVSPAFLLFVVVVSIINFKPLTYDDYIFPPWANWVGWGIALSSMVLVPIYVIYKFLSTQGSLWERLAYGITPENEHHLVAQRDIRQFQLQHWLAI

What is called pKi is the Ki on a negative log10 scale, so that one unit is a factor of ten. As to `CCN(C)C1CCC(c2cn(C)c3ccc(C#N)cc23)C1` (stereo not drawn) [Compound 22, 3-[3-(Ethyl-methyl-amino)-cyclopentyl]-1-methyl-1H-indole-5-carbonitrile], the pKi in assay [1] was 8.00 to 9.00; in assay [2], below 6.00.
On the same counts, the results for `CCN(CC)C1CCC(c2cn(C)c3ccc(C#N)cc23)C1` (stereo not drawn) [Compound 23, 3-(3-Diethylamino-cyclopentyl)-1-methyl-1H-indole-5-carbonitrile] are above 9.00 and below 6.00.
For `Cn1cc(C2CCC(N3CCCC3)C2)c2cc(C#N)ccc21` (stereo not drawn) [Compound 24, 1-Methyl-3-(3-pyrrolidin-1-yl-cyclopentyl)-1H-indole-5-carbonitrile], the pKi was 8.00 to 9.00 in assay [1] and below 6.00 in assay [2].
Take `Cn1cc(C2CCC(N3CCCCC3)C2)c2cc(C#N)ccc21` (stereo not drawn) [Compound 25, 1-Methyl-3-(3-piperidin-1-yl-cyclopentyl)-1H-indole-5-carbonitrile]: the values for the pKi in assay [1] (setting [3]) and in assay [2] were above 9.00 and below 6.00, respectively.
`Cn1cc(C2CCC(N3CCOCC3)C2)c2cc(C#N)ccc21` (stereo not drawn) [Compound 26, 1-Methyl-3-(3-morpholin-4-yl-cyclopentyl)-1H-indole-5-carbonitrile]: the negative-log Ki (pKi) is above 9.00 in assay [1] (setting [3]) and below 6.00 in assay [2].
Regarding `CN(Cc1ccccc1)C1CCC(c2cn(C)c3ccc(C#N)cc23)C1` (stereo not drawn) [Compound 27, 3-[3-(Benzyl-methyl-amino)-cyclopentyl]-1-methyl-1H-indole-5-carbonitrile], the values for the negative-log Ki (pKi) in assay [1] (setting [3]) and in assay [2] were above 9.00 and below 6.00, respectively.
The matching figures for `CN(CCc1ccccc1)C1CCC(c2cn(C)c3ccc(C#N)cc23)C1` (stereo not drawn) [Compound 28, 1-Methyl-3-[3-(methyl-phenethyl-amino)-cyclopentyl]-1H-indole-5-carbonitrile]: 8.00 to 9.00 and 6.00 to 7.00.
Consider `CCCNC1CCC(c2cn(C)c3ccc(C#N)cc23)C1` (stereo not drawn) [Compound 29, 1-Methyl-3-(3-propylamino-cyclopentyl)-1H-indole-5-carbonitrile], for which the results for the negative logarithm of the Ki (pKi) in assay [1] and in assay [2] were above 9.00 and below 6.00, respectively.
In the case of `CCCN(CCC)C1CCC(c2cn(C)c3ccc(C#N)cc23)C1` (stereo not drawn) [Compound 30, 3-(3-Dipropylamino-cyclopentyl)-1-methyl-1H-indole-5-carbonitrile], the figures for the negative logarithm of the Ki (pKi) in assay [1] (setting [3]) and in assay [2] were above 9.00 and below 6.00, respectively.
The matching figures for `CCn1cc(C2CCC(N(C)Cc3ccccc3)C2)c2cc(C#N)ccc21` (stereo not drawn) [Compound 31, 3-[3-(Benzyl-methyl-amino)-cyclopentyl]-1-ethyl-1H-indole-5-carbonitrile]: 8.00 to 9.00 and below 6.00.
On the same counts, the results for `CCn1cc(C2CCC(N(C)C)C2)c2cc(C#N)ccc21` (stereo not drawn) [Compound 32, 3-(3-Dimethylamino-cyclopentyl)-1-ethyl-1H-indole-5-carbonitrile] are above 9.00 and below 6.00.
Take `CN(C)C1CCC(c2c[nH]c3ccc(F)cc23)C1` (stereo not drawn) [Compound 33]: the results for the negative-log Ki (pKi) in assay [1] (setting [3]) and in assay [2] were above 9.00 and below 6.00, respectively.
For `CCN(C)C1CCC(c2c[nH]c3ccc(F)cc23)C1` (stereo not drawn) [Compound 34, Ethyl-[3-(5-fluoro-1H-indol-3-yl)cyclopentyl]-methyl-amine], the negative-log Ki (pKi) in assay [1] is 8.00 to 9.00; in assay [2] it was below 6.00.
The matching figures for `CCN(CC)C1CCC(c2c[nH]c3ccc(F)cc23)C1` (stereo not drawn) [Compound 35, Diethyl-[3-(5-fluoro-1H-indol-3-yl)-cyclopentyl]-amine]: 8.30 and below 6.00.
With `Fc1ccc2[nH]cc(C3CCC(N4CCCC4)C3)c2c1` (stereo not drawn) [Compound 36], the pKi in assay [1] was 8.00 to 9.00; in assay [2], below 6.00.
`CN(C)[C@@H]1CC[C@H](c2c[nH]c3ccc(C#N)cc23)C1` [Compound 48, (1S,3R)-3-(3-dimethylaminocyclopentyl)-1H-indole-5-carbonitrile]: the pKi was above 9.00 in assay [1] (setting [3]) and below 6.00 in assay [2].
The matching figures for `CN(C)[C@H]1CC[C@H](c2c[nH]c3ccc(C#N)cc23)C1` [Compound 49, (1S,3S)-3-(3-dimethylaminocyclopentyl)-1H-indole-5-carbonitrile]: above 9.00 and below 6.00.
On the same counts, the results for `CN(C)[C@H]1CC[C@@H](c2c[nH]c3ccc(C#N)cc23)C1` [Compound 50, (1R,3S)-3-(3-dimethylaminocyclopentyl)-1H-indole-5-carbonitrile] are above 9.00 and below 6.00.
In the case of `CN(C)[C@@H]1CC[C@@H](c2c[nH]c3ccc(C#N)cc23)C1` [Compound 51, (1R,3R)-3-(3-dimethylaminocyclopentyl)-1H-indole-5-carbonitrile], the pKi in assay [1] (setting [3]) is above 9.00; in assay [2], below 6.00.
`CN(C)[C@H]1CC[C@H](c2c[nH]c3ccc(F)cc23)C1` [Compound 52, (1S,3S)-3-(5-fluoro-1H-indol-3-yl)-cyclopentyl-dimethylamine]: the pKi in assay [1] (setting [3]) is 8.00 to 9.00; in assay [2], below 6.00.
The matching figures for `CN(C)[C@@H]1CC[C@H](c2c[nH]c3ccc(F)cc23)C1` [Compound 53, (1R,3S)-3-(5-fluoro-1H-indol-3-yl)-cyclopentyl-dimethylamine]: above 9.00 and below 6.00.
Regarding `CN(C)[C@@H]1CC[C@@H](c2c[nH]c3ccc(F)cc23)C1` [Compound 54, (1R,3R)-3-(5-fluoro-1H-indol-3-yl)-cyclopentyl-dimethylamine], the pKi in assay [1] (setting [3]) is 8.00 to 9.00; in assay [2] it was below 6.00.
Consider `CN(C)[C@H]1CC[C@@H](c2c[nH]c3ccc(F)cc23)C1` [Compound 55, (1S,3R)-3-(5-fluoro-1H-indol-3-yl)-cyclopentyl-dimethylamine], for which the pKi in assay [1] (setting [3]) was 8.00 to 9.00; in assay [2] it was below 6.00.
For `CCn1cc([C@H]2CC[C@@H](N(C)C)C2)c2cc(C#N)ccc21` [Compound 56, (1S,3R)-3-(3-Dimethylamino-cyclopentyl)-1-ethyl-1H-indole-5-carbonitrile], the figures for the pKi in assay [1] (setting [3]) and in assay [2] were above 9.00 and below 6.00, respectively.
Regarding `CCn1cc([C@H]2CC[C@H](N(C)C)C2)c2cc(C#N)ccc21` [Compound 57, (1S,3S)-3-(3-Dimethylamino-cyclopentyl)-1-ethyl-1H-indole-5-carbonitrile], the figures for the negative logarithm of the Ki (pKi) in assay [1] (setting [3]) and in assay [2] were 8.00 to 9.00 and below 6.00, respectively.
The matching figures for `CCn1cc([C@@H]2CC[C@H](N(C)C)C2)c2cc(C#N)ccc21` [Compound 58, (1R,3S)-3-(3-Dimethylamino-cyclopentyl)-1-ethyl-1H-indole-5-carbonitrile]: above 9.00 and below 6.00.
On the same counts, the results for `CCn1cc([C@@H]2CC[C@@H](N(C)C)C2)c2cc(C#N)ccc21` [Compound 59, (1R,3R)-3-(3-Dimethylamino-cyclopentyl)-1-ethyl-1H-indole-5-carbonitrile] are 8.00 to 9.00 and below 6.00.

The values are drawn from US7049314B2, “Cyclopentyl indole derivatives” (Bristol-Myers Squibb Company, priority 2002, dated 2006).
